For orientation: EC50 means the concentration giving half of the maximal effect.

SMILES strings stand for the structures.

Experimental findings from patent US20120028917A1, “Use Of N-(4-((3-(2-Amino-4-Pyrimidinyl)-2-Pyridinyl)Oxy)Phenyl)-4-(4-Methyl-2-Thienyl)-1-Phthalazinamine In The Treatment Of Antimitotic Agent Resistant Cancer” (Amgen Inc., priority 2009, published 2012) are described below.

One assay has as its system HCT116 AZD1152-resistant. Put plainly: Colony formation assay (FIG. 6-B). It is filed as cell-based, human. The settings on record: HCT116 AZD1152-resistant; 48 hours treatment, re-plated drug-free. As to the method:
Tumor cell lines were obtained from the American Type Culture Collection (ATCC) unless otherwise specified. The MDA-MB-231-PTX and NCI-H460-PTX cell lines were established by growing the cells in the presence of increasing concentrations of paclitaxel over a period of 6 months. The HCT116 AZD1152-resistant cell line was established by growing the cells in the presence of AZD1152 at 80 nmol/L. Tumor cells were treated with AMG 900, paclitaxel or AZD1152 (0.5, 5, 50 nmol/L) for 48 hours, washed twice with complete media, and cells were re-plated at a density of 5000 cells per well in drug-free complete media. Cells were grown until the DMSO control wells were confluent. Cells were stained with crystal violet dye (Sigma), washed with distilled water, and imaged using a digital scanner (Hewlett-Packard). Colony formation assay was performed with HCT116 cell lines (parental and AZD1152-resistant). Cells were treated with DMSO, AMG 900, AZD1152, or paclitaxel at the indicated concentrations for 48 hours and re-plated in complete media lacking the inhibitor. After the DMSO-treated cells reached confluence, the cells were stained with crystal violet and imaged (duplicate wells).

In another assay the test system is HL-60. The assay can be described thus: Multiparameter cell cycle DNA content assay (flow cytometry). In kind it is cell-based. Conditions: Homo sapiens; HL-60, Promyelocytic leukemia; 48 hours without compound withdrawal; read-out: EC50 (+4N DNA content endpoint). How it is done: (§1) Tumor cells were seeded in a 300 μL deep 96-well plate in 150 μL of appropriate complete media at a density of 100,000 cells/well. The cells were treated with AMG 900 (10-point dose range 0.156 to 0.0003 μM) with a final DMSO concentration of 0.2% in media. Two hours prior to harvest time, the cells were pulsed with BrdU at the final concentration of 1:100 in media. After 48 hours, 100 μL of media was removed from each well with a multi-well pipetter. Then the cells were transferred to PCR tube strips in 200 μL of media. The cells were centrifuged at 2000 rpm at 18° C. for 4 minutes and the supernatant was aspirated. The cells were then fixed in 200 μL of ice cold 90% methanol and stored at −20° C. for at least 24 hours before antibody and DNA staining. Fixed cells were centrifuged at 2000 rpm for 4 minutes to remove 90% methanol. Cells were washed with 200 μL of wash buffer and then treated with 100 μL acid buffer at room temperature for 1 hour in the dark. Cells were washed twice with 200 μL wash buffer (until pH was 7.0, confirmed with pH paper). Cells were incubated with an anti-BrdU-Alexa 647 (3 μg/mL) and anti-Caspase 3-FITC (20 μ/well) antibody cocktail in wash buffer for 2 hours at room temperature in the dark. Stained cells were centrifuged and washed with 200 μL of wash buffer. Cells were counterstained with 200 μL of propidium iodide (PI) overnight at 4° C. in the dark. Data was acquired and analyzed by flow cytometer (LSRII). A threshold gate was applied according to DNA content, BrdU, and Caspase-3 positive/negative populations based on DMSO control and low/high drug-treated groups. The data was represented as a percentage of SubG1 DNA content, 4N+ DNA content, BrdU, and Caspase-3 cleavage positive populations. The concentration-response curves and EC50 values were calculated using a 4-parameter equation.

For the next assay, the system named is RPMI-8226. The description is as above. It is filed as cell-based. The settings on record: Homo sapiens; RPMI-8226, Multiple Myeloma; 48 hours without compound withdrawal; read-out: EC50 (+4N DNA content endpoint). How it is done:
as §1

The test system of a further assay is MOLT-4. The description is as above. In kind it is cell-based. Conditions: Homo sapiens; MOLT-4, T cell leukemia; 48 hours without compound withdrawal; read-out: EC50 (+4N DNA content endpoint). As to the method: as §1
The test system of a further assay is U266-B1. Described as above. It is filed as cell-based. The settings on record: Homo sapiens; U266-B1, Multiple Myeloma; 48 hours without compound withdrawal; read-out: EC50 (+4N DNA content endpoint). As to the method: as §1
A further assay has as its system Jurkat. The assay is described as above. It is filed as cell-based. Conditions: Homo sapiens, T cell leukemia, 48 hours without compound withdrawal, read-out: EC50 (+4N DNA content endpoint). How it is done:
as §1

Another assay relates to K562. The description is as above. In kind it is cell-based. The settings on record: Homo sapiens; K562, Chronic myeloid leukemia; 48 hours without compound withdrawal; read-out: EC50 (+4N DNA content endpoint). As to the method:
as §1

For assay [1], the system named is multiple human cancer xenograft models. The assay can be described thus: Xenograft panel, Example 3 (summary). Conditions: all xenograft models tested; oral 3.75, 7.5 or 15 mg/kg BID 2 consecutive days per week or 3 mg/kg BID everyday. In kind it is in vivo, athymic nude mice. How it is done:
(§2) To investigate whether AMG 900-induced suppression of aurora kinase activity inhibits cell proliferation, the antiproliferative efficacy of AMG 900 was evaluated in-vivo in multiple human cancer xenograft models, including breast, colon, leukemia, lung, pancreatic, and uterine cancer models, grown in athymic nude mice. Mice were administered AMG 900 orally at 3.75, 7.5, or 15 mg/kg BID for 2 consecutive days per week or 3 mg/kg BID everyday for the duration of the study beginning when tumors were established. The reagents, solutions, equipment, formulation of AMG 900, tumor volume measurements and calculations were generally as described in Example 4 below.

The next assay has as its system Colo 205 xenograft. The assay can be described thus: Xenograft tumor growth inhibition (Example 3). It is filed as in vivo, athymic nude mice. The settings on record: Colo 205, Colon; oral BID, best of intermittent or continuous dose schedule. As to the method: as §2
For a further assay, the system named is HCT 116 xenograft. Put plainly: Xenograft tumor growth inhibition (Example 3). It is filed as in vivo, athymic nude mice. The settings on record: HCT 116, Colon; oral BID, best of intermittent or continuous dose schedule. How it is done:
as §2

For the next assay, the system named is MiaPaCa2 xenograft. Put plainly: Xenograft tumor growth inhibition (Example 3). In kind it is in vivo, athymic nude mice. Conditions: MiaPaCa2, Pancreas; oral BID, best of intermittent or continuous dose schedule. As to the method:
as §2

The next assay relates to MES-SA xenograft. Put plainly: Xenograft tumor growth inhibition (Example 3). The settings on record: Uterine, oral BID, best of intermittent or continuous dose schedule. In kind it is in vivo, athymic nude mice. How it is done:
as §2

A further assay has as its system HL60 xenograft. Put plainly: Xenograft tumor growth inhibition (Example 3). In kind it is in vivo, athymic nude mice. Conditions: HL60, Leukemia; oral BID, best of intermittent or continuous dose schedule. How it is done: as §2
A further assay has as its system MDA-MB-231 xenograft. The assay can be described thus: Xenograft tumor growth inhibition (Example 3). In kind it is in vivo, athymic nude mice. The settings on record: MDA-MB-231, Breast; oral BID, best of intermittent or continuous dose schedule. How it is done:
as §2

The next assay concerns NCI-H460 xenograft. Put plainly: Xenograft tumor growth inhibition (Example 3). It is filed as in vivo, athymic nude mice. Conditions: NCI-H460, Lung; oral BID, best of intermittent or continuous dose schedule. How it is done:
as §2

In the case of `Cc1csc(-c2nnc(Nc3ccc(Oc4ncccc4-c4ccnc(N)n4)cc3)c3ccccc23)c1` [AMG 900, N-(4-((3-(2-amino-4-pyrimidinyl)-2-pyridinyl)oxy)phenyl)-4-(4-methyl-2-thienyl)-1-phthalazinamine], the “concentrations inhibiting colony formation” value in the assay on HCT116 AZD1152-resistant is reported as not below 5 nmol/L. In addition, the EC50 worked out at 2 nM in the assay on HL-60; 2 nM in the assay with RPMI-8226; 2 nM in the assay with MOLT-4; 2 nM in the assay on U266-B1; 1 nM in the assay on Jurkat; 1 nM in the assay with K562. In assay [1], the “tumor growth vs vehicle control” value is given as “significantly inhibited tumor growth”. In addition, the “% TGI (tumor growth inhibition)” value was 58% with Colo 205 xenograft; 83% in the assay with HCT 116 xenograft; 62% in the assay on MiaPaCa2 xenograft; 86% in the assay with MES-SA xenograft; 68% with HL60 xenograft; 82% in the assay with MDA-MB-231 xenograft. Besides, the “% TGI (tumor growth inhibition)” value in the assay on NCI-H460 xenograft worked out at 85%.
